Reference: patent US20150196580A1, “USE OF DEFIBROTIDE FOR THE INHIBITION OF HEPARANASE” (GENTIUM SPA, priority 2006, published 2015)
“Also recorded” adds a separate entry of the source.

Tests used:
[1] = test system: Heparanase gene expression; assay: Real-Time PCR of Heparanase gene expression in HMEC cells; assay type: cell-based, human; conditions: DF 150 μg/ml, 24 h, vs saline control, triplicate
Description: (§1) To evaluate the effect of DF either on Heparanase expression and its activity, the U266 and HMEC cells were incubated for 24 h with DF at different concentrations or saline (control cells). After incubation with Defibrotide, the cells were washed with phosphate-buffered saline (PBS) pH 7.4, and different U266 and HMEC samples were prepared for different experiments.
(§2) RNA has been isolated from U266 and HMEC cells (1.5×10^5 Cells/ml) treated with saline (control) or DF at doses of 150 and 400 μg/ml for 24 h. To isolate the RNA were used the RNeasy Mini Kit from Qiagen according the manufacture's instructions.
(§3) The 1% agarose gel electrophoresis, stained with Ethidium Bromide, was performed on all samples to check for presence of clear 28S and 18S ribosomal subunit bands. […]
(§4) In order to perform the Real Time PCR was used the SYBER Green PCR Master Mix Reagent (SYBER Green PCR--Bio-Rad). Direct detection of polymerase chain reaction (PCR) product was monitored by measuring the increase in fluorescence caused by the binding of SYBER Green to double-stranded DNA. […]
Real-Time PCR was performed on cDNAs prepared from HMEC cells treated with saline (control) or DF at dose of 150 μg/ml. The experiments were performed in triplicate and the results are expressed as mRNA levels normalized by the housekeeping actin gene.

[2] = test system: Heparanase gene expression; assay: Real-Time PCR of Heparanase gene expression in U266 myeloma cells; assay type: cell-based; conditions: DF 150 and 400 μg/ml, 24 h, vs saline control, triplicate
Description: as §1, §2, §3, §4
Real-Time PCR was performed on cDNAs prepared from U266 cells treated with saline (control) or DF at dose of 150 and 400 μg/ml. The experiments were performed in triplicate and the results are expressed as mRNA levels normalized by the housekeeping actin gene.

Heparanase = target: T1, Heparanase (Homo sapiens, UniProt Q9Y251); assay: Heparanase activity assay (Heparan Degrading Enzyme Assay Kit) in U266 extracts; assay type: cell-based; conditions: U266 cells, DF 50, 100 and 150 μg/ml, 24 h, vs saline control, triplicate
T1 construct: The Heparanase activity was measured in U266 extracts (1×10^5 Cell/ml of extraction buffer) by a commercial Heparan Degrading Enzyme Kit; endogenous in cells; host or cells: U266 myeloma cells (cell extract)
T1 sequence (Q9Y251 158-543 limits assumed): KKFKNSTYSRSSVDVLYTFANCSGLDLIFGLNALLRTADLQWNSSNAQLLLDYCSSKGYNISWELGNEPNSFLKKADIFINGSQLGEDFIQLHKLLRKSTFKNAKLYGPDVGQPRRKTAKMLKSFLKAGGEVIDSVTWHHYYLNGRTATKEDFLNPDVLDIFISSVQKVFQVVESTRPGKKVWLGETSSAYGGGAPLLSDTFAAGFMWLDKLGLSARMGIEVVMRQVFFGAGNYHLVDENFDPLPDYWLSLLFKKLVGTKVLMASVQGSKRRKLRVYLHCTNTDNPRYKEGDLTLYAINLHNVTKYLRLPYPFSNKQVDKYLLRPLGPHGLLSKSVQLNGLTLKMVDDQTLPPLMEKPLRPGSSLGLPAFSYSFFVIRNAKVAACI
T1 sequence (Q9Y251 36-109 limits assumed): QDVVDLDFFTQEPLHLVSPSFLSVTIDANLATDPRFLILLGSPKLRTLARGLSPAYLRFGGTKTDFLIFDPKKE
Description: as §1
The Heparanase activity was measured in U266 extracts (1×10^5 Cell/ml of extraction buffer) by a commercial Heparan Degrading Enzyme Kit (Takara-bio Inc.) according to manufacturer's instruction. The U266 cells have been treated with saline (control) or DF at doses of 50, 100 and 150 μg/ml for 24 h.
Heparan Degrading Enzyme Assay Kit measure the activity of heparan degrading enzyme in cultured cells, utilizing the property that heparan-like molecules and bFGF (basic fibroblast growth factor) combine each other. CBD-FGF is a fusion protein of cell-binding domain of human fibronectin and human fibroblast growth factor (Takara-bio Inc.). […]
The activity of Heparanase were measured using the Heparanse Degrading Enzyme Assay kit on U266 cells treated with saline (control) or Defibrotide at dose of 50, 100 and 150 μg/ml. The experiments were performed in triplicate and the activity of Heparanase is shown with decrease of absorbance.

## defibrotide [DF]
[1]
  Effect on Heparanase gene expression (mRNA levels normalized by the housekeeping actin gene): acts on Microvascular endothelial cells through altering the Heparanase gene expression; also recorded: downregulation of Heparanase gene expression on HMEC cells
[2]
  Effect on Heparanase gene expression (mRNA levels normalized by the housekeeping actin gene): acts on U266 myeloma cells line through altering the Heparanase gene expression; also recorded: down regulation of Heparanase gene
Heparanase
  Effect on enzymatic activity of Heparanase (shown with decrease of absorbance): interferes on the Heparanase activity in the myeloma cell line; also recorded: decrease of its enzymatic activity
